Laboratory results as given in US8669267B2, “Pharmaceutical, food or beverage having inhibitory activity on serotonin transporter” (Suntory Holdings Limited, priority 2008, dated 2014).

How the values were obtained:
[1] = target: T1, human serotonin transporter (Homo sapiens, UniProt P31645); assay: [3H] imipramine binding to cell homogenate of CHO cells expressing human serotonin transporter; details: 100 μg/mL (1S,3S)-MTCA sample; 2 nM [3H] imipramine; 22° C. for 60 minutes; control = 100
T1 construct: expressed in transfected cells; host or cells: CHO cells, vector pRc/CMV, calcium phosphate transfection
T1 sequence (P31645 whole entry): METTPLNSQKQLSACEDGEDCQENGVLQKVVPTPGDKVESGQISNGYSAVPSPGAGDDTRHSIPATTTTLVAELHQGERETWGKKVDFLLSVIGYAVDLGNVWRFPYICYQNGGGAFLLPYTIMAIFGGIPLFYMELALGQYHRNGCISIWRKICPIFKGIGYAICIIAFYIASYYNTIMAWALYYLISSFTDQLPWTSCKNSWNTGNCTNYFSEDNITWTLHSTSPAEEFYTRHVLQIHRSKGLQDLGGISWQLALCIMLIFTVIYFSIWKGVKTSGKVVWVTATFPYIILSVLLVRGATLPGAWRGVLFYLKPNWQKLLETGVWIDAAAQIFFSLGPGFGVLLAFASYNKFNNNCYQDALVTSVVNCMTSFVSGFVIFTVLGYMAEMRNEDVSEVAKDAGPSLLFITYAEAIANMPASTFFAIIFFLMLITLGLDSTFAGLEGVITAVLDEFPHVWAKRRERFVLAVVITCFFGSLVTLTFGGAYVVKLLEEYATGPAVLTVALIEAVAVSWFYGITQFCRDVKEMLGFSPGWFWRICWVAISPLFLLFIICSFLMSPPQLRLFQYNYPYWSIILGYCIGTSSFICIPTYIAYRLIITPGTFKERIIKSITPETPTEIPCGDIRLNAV
Method: A commercially-available (1S,3S)-2,3,4,9-tetrahydro-1-methyl-1H-pyrido[3,4-b]-indole-3-carboxylic acid reagent (manufactured by Wako Pure Chemical Industries, Ltd.) was used as a subject substance ((1S,3S)-MTCA), and the inhibitory effect of (1S,3S)-MTCA on serotonin transporters was determined using a method described in Masahiko T, et al: European Journal of Pharmacology 368 277-283, 1999.
CHO cells were transfected with a secretory vector pRc/CMV, in which cDNA of a human serotonin transporter was incorporated, by a calcium phosphate method. […]
Then, the medium was removed by aspiration to prepare a cell homogenate. […] The concentration of protein in the resulting cell homogenate was measured by a Lowry method using bovine serum albumin (BSA) as a standard.
Thereafter, 25 μL, of (1S,3S)-MTCA solution dissolved in physiological saline (100 μg/mL) and the solution 2 (225 μL) comprising 2 nM [^3H] imipramine were added to a 96-hole microplate, and the cell homogenate (amount of protein: 15 μg) obtained in (1) was added to the microplate, followed by incubation at 22° C. for 60 minutes. […] Non-specific binding of [^3H] imipramine to the cell homogenate was determined using 10 μM imipramine. […]

[2] = system: C57BL/6N mice with motivation decreased through open-space swimming; assay: Open-space swimming combined with Morris water maze test (escape-latency); assay type: in vivo
Method: The subjects were […] male C57BL/6N mice that had never been subjected to any experiment. At the beginning of the experiment, an average age of the subjects was about 12 weeks old, and an average weight of the subjects was 24.9 g (SD=3.30). The subjects were housed in an acrylic cage in an animal house in which the room temperature was 23° C. and the humidity was 50 to 60%. The inside of the animal house was set such that a light is alternately turned on and off in a 12-hour cycle (light period: from 8:00 AM to 8:00 PM). This experiment was carried out every day at the same time period during the light period. As feedstuff, a dry solid feed (Labo MR manufactured by Nosan Corporation) was fed. The supply of neither feedstuff nor water was limited.
The subjects were divided into 3 groups, and they were named noOS-Vehicle group (group of normal mice) (n=10), OS-(1S,3S)-MTCA-administered group (n=10), and OS-Vehicle group (group of mice having depression) (n=10), respectively.
A circular pool with an inner diameter of 95 cm and a depth of 35 cm was used. The pool was surrounded by white partitions each having a height of 120 cm and a width of 150 cm. […] The place where the escape platform was located was a central part of one of the four evenly-divided fan-shaped quadrants (Quadrant 1 to 4) of a circular water surface, and was determined for each subject. […]

γ-crystallin = details: cited from earlier work
monoamine oxidase A = target: T2, monoamine oxidase A (Homo sapiens, UniProt P21397); details: cited from earlier work
T2 sequence (P21397 1-527): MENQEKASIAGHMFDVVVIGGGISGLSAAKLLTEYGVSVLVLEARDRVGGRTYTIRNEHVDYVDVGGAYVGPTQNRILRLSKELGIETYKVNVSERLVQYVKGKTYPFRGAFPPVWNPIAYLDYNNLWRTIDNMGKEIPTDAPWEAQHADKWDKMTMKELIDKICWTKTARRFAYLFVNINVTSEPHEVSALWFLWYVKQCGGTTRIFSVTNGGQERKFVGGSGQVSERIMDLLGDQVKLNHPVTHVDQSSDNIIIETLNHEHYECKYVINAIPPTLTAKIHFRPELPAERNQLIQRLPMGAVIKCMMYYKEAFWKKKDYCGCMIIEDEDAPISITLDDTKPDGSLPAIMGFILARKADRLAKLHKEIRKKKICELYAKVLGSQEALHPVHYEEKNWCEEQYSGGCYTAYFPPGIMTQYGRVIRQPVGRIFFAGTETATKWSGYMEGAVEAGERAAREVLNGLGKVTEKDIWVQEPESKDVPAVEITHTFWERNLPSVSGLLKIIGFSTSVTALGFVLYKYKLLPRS

[3] = system: uptake of serotonin in the brain; details: cited from earlier work
rats = details: forced-swimming tests using rats; cited from earlier work

| Compound | amount of [3H] imipramine that specifically bound to the cell homogenate (control was 100) [1] | average escape-latency (average of five trials) ([2]; Day 1 of administration, 20 mg/kg orally 60 minutes before training, open-space swimming treated mice, OS-Vehicle 52.6, noOS-Vehicle 44.1) [s] | time taken to reach the escape platform compared with the OS-Vehicle group ([2]; continuous administration up to Day 10, 20 mg/kg orally every day, FIG. 3) | self-polymerization reaction of γ-crystallin (γ-crystallin; Fenton reaction using FeCl3) | photopolymerization reaction of γ-crystallin (γ-crystallin) | activity of monoamine oxidase A (monoamine oxidase A) | uptake of serotonin in the brain [3] | immobility time (rats) |
| --- | --- | --- | --- | --- | --- | --- | --- | --- |
| C[C@@H]1N[C@H](C(=O)O)Cc2c1[nH]c1ccccc21 [(1S,3S)-MTCA, (1S,3S)-1-methyl-1,2,3,4-tetrahydro-β-carboline-3-carboxylic acid] | 69 | 42.7 | decreased significantly | prevents | prevents |  |  |  |
| COc1ccc2[nH]c3c(c2c1)CCNC3 [pinoline, 6-methoxy-1,2,3,4-tetrahydro-β-carboline] |  |  |  |  |  | inhibits | inhibits | reduces |
